Reference: US20080145858A1, “DETECTION AND IDENTIFICATION OF TOXICANTS BY MEASUREMENT OF GENE […]” (priority 2003, published 2008)
Marks after values point to notes of the source that are not given here.

Test system: Xenopus laevis cleavage stage embryos (stage 8)
Experiment: Xenopus cDNA microarray, differential gene expression after PMA treatment during cleavage stage (Group I)
Format: in vivo
Conditions: stage 8; for Normalized by Landmarks (1.59) / Normalized by all Data Points (1.28) / Ratio of Medians (Cy5/Cy3) First Spot / Ratio of Medians (Cy5/Cy3) Mean / Ratio of Medians (Cy5/Cy3) Second Spot / (CY3/CY5) by Landmarks (1.6) / (CY3/CY5) by all Data Points (1.3) / Normalization by Landmarks (1.6) / Normalization by all Data Points (1.3): PMA 100 ng/ml
Source text: Specifically, the method and screen of the present invention function as follows. EST clones produced from Xenopus laevis unfertilized eggs were used in the present study with ˜1,200 EST clones from a 18,500 EST clone set selected for production of a Xenopus cDNA microarray. The Xenopus microarray was used to measure the effect of chemical treatment on Xenopus embryo gene regulation. The chemical treatment was a phorbol ester, PMA. Xenopus eggs were obtained from females induced for ovulation and fertilized in vitro. Control Xenopus laevis embryos were allowed to develop to stage 8 blastula or stage 15 neurula. Treated embryos were exposed to PMA during cleavage stage or during neurulation with end points of blastula (stage 8) or neurula (stage 15). Specifically, PMA 100 ng/ml was added to the incubation media during cleavage stages for evaluation in stage 8 embryo or PMA was added during neural induction for evaluation in stage 15 embryos. RNA extracted from the embryos was used to generate fluorescent cDNA probes for Xenopus microarray analyses to measure differential gene expression with and without the phorbol ester treatment. Analysis was performed using paired RNA samples to compare PMA-treated and untreated embryos: Group I measured the effects of PMA-treatment during the cleavage stage in stage 8 embryos and Group II measured the effects of PMA-treatment during neurulation in stage 15 embryos. Group III measured the change in gene expression between stage 8 and stage 15 embryos.
cDNA fragments were obtained by PCR replication of Xenopus laevis unfertilized egg cDNA inserts, purified, quantitated and loaded onto glass chips by robotics. In addition to the selected ˜1,200 genes, 64 lambda Q gene, an internal control cDNA (Genomic Solutions, Inc., Ann Arbor, Mich.) was loaded on the chip. The insert DNA from ˜1,200 clones were PCR amplified using forward and reverse primers (GF.200 primers, Research Genetics, Huntsville, Ala.). A second PCR was carried out using 1 μl of the primary PCR (20 μl) for template. Excess dNTPs, polymerase and other PCR artifacts were removed from the secondary PCR reactions using Millipore Multiscreen plates (Millipore Corporation, Bedford, Mass.) using the standard protocol. The purity of the PCR products was assessed by electrophoresis and documented using an Alphalmager 1000 Digital Imaging System (Alpha Innotech Corporation, San Leandro, Calif.). The DNA obtained by PCR was quantitated using PicoGreen (Molecular Probes, Eugene, Oreg.). The DNA was denatured and arrayed onto amino-silane coated microscope slides (CMT-GAPS coated slides, Corning, Corning, N.Y.) using a Flexys robotic workstation (Genomic Solutions Inc.). The ˜1,200 PCR products were arrayed in duplicate on each slide and cross-linked. Each gene chip contained duplicate cDNA samples.
Total RNA was prepared from embryos treated in three separate dishes per treatment group that were pooled. Total RNA was isolated from the frog embryos (1,200 embryos for each probe production) using TRIzol extraction (Gibco BRL, Grand Island, N.Y.) and Qiagen RNeasy kits (Qiagen, Valencia, Calif.). The ethanol precipitated RNA was resuspended in RNase-free water, quantitated with RiboGreen (Molecular Probes, Eugene, Oreg.). Total RNA was further purified using oligoTex mRNA maxi kit (Qiagen Co.) with the bound mRNA eluted with minimum volume of elution buffer and precipitated with ethanol. The recovery rate of mRNA by the ethanol precipitation method was ˜70%. Cy3- or Cy5-tagged probes were produced from an mRNA mixture (20 μl) of Xenopus mRNA (5 μg) and lambda Q gene mRNA (3.5 ng) reverse-transcribed with oligo(dT)18-22 primer and dNTPs and the reverse-transcribed cDNA was cross-linked with Cy3 or Cy5 as described in Clontech Atlas™ Glass Fluorescent Labeling kit manual (www.clontech.com). After hydrolysis of the RNA and purification of the probe (Centricon 50, Millipore, Bedford, Mass.), the cDNA in TE buffer was quantitated by absorbance at 260 nm. […]

CCCCCCCCCCCCCC(=O)O[C@@H]1[C@@H](C)[C@@]2(O)[C@@H](C=C(CO)C[C@]3(O)C(=O)C(C)=C[C@@H]23)[C@@H]2C(C)(C)[C@]12OC(C)=O [PMA, phorbol 12-myristate 12-acetate]
alpha-tubulin expression ratio, mean of 4 data points using NF from landmarks (2 alpha-tubulin genes (house keeping)): 0.85
Normalized by Landmarks (1.59) (PBX0134C10 mRNA): 7.95
Normalized by all Data Points (1.28) (PBX0134C10 mRNA): 6.40
Ratio of Medians (Cy5/Cy3) First Spot (PBX0134C10 mRNA): 3.33
Ratio of Medians (Cy5/Cy3) Mean (PBX0134C10 mRNA): 5.00 ± 1.67^a
Ratio of Medians (Cy5/Cy3) Second Spot (PBX0134C10 mRNA): 6.67
Normalized by Landmarks (1.59) (PBX0134E04 mRNA): 4.58
Normalized by all Data Points (1.28) (PBX0134E04 mRNA): 3.69
Ratio of Medians (Cy5/Cy3) First Spot (PBX0134E04 mRNA): 2.75
Ratio of Medians (Cy5/Cy3) Mean (PBX0134E04 mRNA): 2.88 ± 0.12
Ratio of Medians (Cy5/Cy3) Second Spot (PBX0134E04 mRNA): 3.00
Normalized by Landmarks (1.59) (PBX0134G08 mRNA): 7.62
Normalized by all Data Points (1.28) (PBX0134G08 mRNA): 6.13
Ratio of Medians (Cy5/Cy3) First Spot (PBX0134G08 mRNA): 4.25
Ratio of Medians (Cy5/Cy3) Mean (PBX0134G08 mRNA): 4.79 ± 0.54
Ratio of Medians (Cy5/Cy3) Second Spot (PBX0134G08 mRNA): 5.33
Normalized by Landmarks (1.59) (PBX0134G10 mRNA): 5.20
Normalized by all Data Points (1.28) (PBX0134G10 mRNA): 4.19
Ratio of Medians (Cy5/Cy3) First Spot (PBX0134G10 mRNA): 2.71
Ratio of Medians (Cy5/Cy3) Mean (PBX0134G10 mRNA): 3.27 ± 0.56
Ratio of Medians (Cy5/Cy3) Second Spot (PBX0134G10 mRNA): 3.83
Normalized by Landmarks (1.59) (PBX0134G11 mRNA): 3.90
Normalized by all Data Points (1.28) (PBX0134G11 mRNA): 3.14
Ratio of Medians (Cy5/Cy3) First Spot (PBX0134G11 mRNA): 2.50
Ratio of Medians (Cy5/Cy3) Mean (PBX0134G11 mRNA): 2.45 ± 0.05
Ratio of Medians (Cy5/Cy3) Second Spot (PBX0134G11 mRNA): 2.40
Normalized by Landmarks (1.59) (PBX0134H03 mRNA): 5.44
Normalized by all Data Points (1.28) (PBX0134H03 mRNA): 4.38
Ratio of Medians (Cy5/Cy3) First Spot (PBX0134H03 mRNA): 3.67
Ratio of Medians (Cy5/Cy3) Mean (PBX0134H03 mRNA): 3.42 ± 0.25
Ratio of Medians (Cy5/Cy3) Second Spot (PBX0134H03 mRNA): 3.17
Normalized by Landmarks (1.59) (PBX0135C06 mRNA): 4.29
Normalized by all Data Points (1.28) (PBX0135C06 mRNA): 3.46
Ratio of Medians (Cy5/Cy3) First Spot (PBX0135C06 mRNA): 3.00
Ratio of Medians (Cy5/Cy3) Mean (PBX0135C06 mRNA): 2.70 ± 0.30
Ratio of Medians (Cy5/Cy3) Second Spot (PBX0135C06 mRNA): 2.40
(CY3/CY5) by Landmarks (1.6) (PBX0136B04 mRNA): 2.76
(CY3/CY5) by all Data Points (1.3) (PBX0136B04 mRNA): 4.41
Normalization by Landmarks (1.6) (PBX0136B04 mRNA): 0.36
Normalization by all Data Points (1.3) (PBX0136B04 mRNA): 0.23
Ratio of Medians (Cy5/Cy3) First Spot (PBX0136B04 mRNA): 0.11
Ratio of Medians (Cy5/Cy3) Mean (PBX0136B04 mRNA): 0.17 ± 0.06
Ratio of Medians (Cy5/Cy3) Second Spot (PBX0136B04 mRNA): 0.24
Normalized by Landmarks (1.59) (PBX0136C09 mRNA): 5.55
Normalized by all Data Points (1.28) (PBX0136C09 mRNA): 4.47
Ratio of Medians (Cy5/Cy3) First Spot (PBX0136C09 mRNA): 3.80
Ratio of Medians (Cy5/Cy3) Mean (PBX0136C09 mRNA): 3.49 ± 0.31
Ratio of Medians (Cy5/Cy3) Second Spot (PBX0136C09 mRNA): 3.17
Normalized by Landmarks (1.59) (PBX0136F03 mRNA): 5.26
Normalized by all Data Points (1.28) (PBX0136F03 mRNA): 4.24
Ratio of Medians (Cy5/Cy3) First Spot (PBX0136F03 mRNA): 3.50
Ratio of Medians (Cy5/Cy3) Mean (PBX0136F03 mRNA): 3.31 ± 0.20
Ratio of Medians (Cy5/Cy3) Second Spot (PBX0136F03 mRNA): 3.11
Normalized by Landmarks (1.59) (PBX0137A11 mRNA): 5.31
Normalized by all Data Points (1.28) (PBX0137A11 mRNA): 4.28
Ratio of Medians (Cy5/Cy3) First Spot (PBX0137A11 mRNA): 2.17
Ratio of Medians (Cy5/Cy3) Mean (PBX0137A11 mRNA): 3.34 ± 1.66
Ratio of Medians (Cy5/Cy3) Second Spot (PBX0137A11 mRNA): 4.50
(CY3/CY5) by Landmarks (1.6) (PBX0137E10 mRNA): 1.85
(CY3/CY5) by all Data Points (1.3) (PBX0137E10 mRNA): 2.96
Normalization by Landmarks (1.6) (PBX0137E10 mRNA): 0.54
Normalization by all Data Points (1.3) (PBX0137E10 mRNA): 0.34
Ratio of Medians (Cy5/Cy3) First Spot (PBX0137E10 mRNA): 0.31
Ratio of Medians (Cy5/Cy3) Mean (PBX0137E10 mRNA): 0.26 ± 0.05
Ratio of Medians (Cy5/Cy3) Second Spot (PBX0137E10 mRNA): 0.21
Normalized by Landmarks (1.59) (PBX0137G06 mRNA): 3.74
Normalized by all Data Points (1.28) (PBX0137G06 mRNA): 3.01
Ratio of Medians (Cy5/Cy3) First Spot (PBX0137G06 mRNA): 2.22
Ratio of Medians (Cy5/Cy3) Mean (PBX0137G06 mRNA): 2.35 ± 0.13
Ratio of Medians (Cy5/Cy3) Second Spot (PBX0137G06 mRNA): 2.47
Normalized by Landmarks (1.59) (PBX0138A04 mRNA): 4.75
Normalized by all Data Points (1.28) (PBX0138A04 mRNA): 3.83
Ratio of Medians (Cy5/Cy3) First Spot (PBX0138A04 mRNA): 1.64
